Test results: patent US8993260B2, “Fluorescence-based viability staining method using a membrane permeable flourescent dye and membrane impermeable fluorescence quencher” (Charles River Laboratories, Inc., priority 2012, dated 2015)

Tests used:
[1] = system: viable and non-viable E. coli; assay: Viability staining of mixed viable/non-viable E. coli in solution: fluorescent probe and two PET quenchers; type: cell-based; settings: 0.005 mM Oxazine 170 perchlorate, 0.4 mM p-Sulfonic calix[6]arene, 100 mM sodium ascorbate in PBS; about 5 min
Procedure: The viable and heat killed E. coli were preparations were prepared as described in Example 1. The heat killed E. coli suspension was then combined with the viable cell suspension and mixed by vortexing. The resulting cell suspension served as the viable and non-viable E. coli solution. A fluorescent probe-quencher stain was prepared as a solution consisting of 0.005 mM Oxazine 170 perchlorate (Sigma-Aldrich, St. Louis, Mo.), 0.4 mM p-Sulfonic calix[6]arene (TCI America, Portland, Oreg.), 100 mM Sodium ascorbate (Sigma-Aldrich, St. Louis, Mo.) in PBS. The viable and non-viable E. coli suspension was then diluted 1:1000 into the fluorescent probe-quencher solution to stain the cells. After incubation for approximately 5 minutes, a droplet of the stained cell solution was placed onto a microscope slide and imaged on a fluorescent microscope (Carl Zeiss, LLC, Thornwood, N.Y.). FIGS. 20A and 20B show a combined image of the viable and non-viable stained E. coli captured under phase contrast (FIG. 20A) as well as fluorescent conditions (excitation 575-625 nm, emission 660-710 nm) (FIG. 20B). The viable and non-viable cells were indistinguishable in phase contrast but under fluorescent conditions the viable cells were brightly fluorescent whereas the non viable cells were not.

[2] = system: viable and heat killed E. coli; assay: Viability staining of E. coli captured on a membrane: fluorescent probe and quencher wash, fluorescence microscopy; type: cell-based; settings: 0.005 mM Oxazine 170 perchlorate stain, then 10 mM sodium ascorbate wash
Procedure: Viable and non-viable E. coli cell fractions were prepared by picking a colony cultured on a conventional media plate and then transferring the cells into Phosphate Buffered Saline (PBS). The cells then were suspended by vortexing and then were further diluted in PBS to give a turbidity equivalent to a 1.0 McFarland standard. This stock solution served as the live cell fraction. An aliquot of the live cell fraction was transferred to a glass tube that was placed into a boiling water bath for about 15 minutes to heat kill the E. coli. The tube was removed from the bath and allowed to cool to room temperature. This heat killed suspension served as the dead cell fraction. A fluorescent stain solution was prepared as a 0.005 mM solution of Oxazine 170 perchlorate (Sigma-Aldrich, St. Louis, Mo.) in PBS containing a 1:100,000 dilution of 10% w/v 0.8 μm Sky Blue latex fluorescent particles (Spherotech, Lake Forest, Ill.). A separate quencher wash solution was prepared as a 10 mM Sodium ascorbate (Sigma-Aldrich, St. Louis, Mo.) solution in PBS. […] The cells then were imaged using a fluorescent microscope (Carl Zeiss, LLC—Thornwood, N.Y.) with an excitation of 575 nm-625 nm and measured emission of 660 nm-710 nm. […]

SMILES | Permeation of the quencher through non-viable cell membranes and quenching of fluorescence [1] | Permeation of the quencher into heat killed cells (quenching of fluorescent signal) ([2]; heat killed E. coli on 0.2 μm membrane) | Permeation of the quencher into viable cells ([2]; live E. coli on 0.2 μm membrane, ex 575-625 nm, em 660-710 nm)
O=S(=O)(O)c1cc2c(O)c(c1)Cc1cc(S(=O)(=O)O)cc(c1O)Cc1cc(S(=O)(=O)O)cc(c1O)Cc1cc(S(=O)(=O)O)cc(c1O)Cc1cc(S(=O)(=O)O)cc(c1O)Cc1cc(S(=O)(=O)O)cc(c1O)C2 [p-Sulfonic calix[6]arene, 4- Sulfocalix [6]arene] | permeated the non-viable cell membranes resulting in an effective quenching of fluorescence | – | –
O=C1O[C@H]([C@@H](O)CO)C([O-])=C1O.[Na+] [sodium ascorbate, Sodium Ascorbate] | permeated the non-viable cell membranes resulting in an effective quenching of fluorescence | permeated | excluded from the viable cells
